Assay results taken from patent publication US11912693B2, “Compounds for modulating S1P1 activity and methods of using the same” (TREVENA, INC., priority 2017, dated 2024).

Assays:
[1] = target: T1, human sphingosine-1-phosphate receptor 1 (S1P1) (Homo sapiens (Human), UniProt P21453); assay: Inhibition of cAMP production (HTRF cAMP HiRange), S1P1 CHO-K1 cells; format: cell-based; details: for hS1P1 cAMP pEC50: inhibition of cAMP production, S1P1 CHO-K1 cells; for Emax: CHO-K1, read-out: hS1P1 cAMP SPAN
Summary of the method: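 CHO-K1 cells stably co-expressing human S1P1 (C-terminal Prolink tag) and EA-β-arrestin2 were grown in AssayComplete Media 6 at 37° C. and 5% CO2, plated, and incubated overnight. Agonist-driven inhibition of intracellular cAMP was read by TR-FRET with the HTRF cAMP HiRange kit on a PheraStar reader. Potency is pEC50, and efficacy (SPAN) is normalized to fingolimod.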
Target sequence in this assay (P21453 whole entry, looked up): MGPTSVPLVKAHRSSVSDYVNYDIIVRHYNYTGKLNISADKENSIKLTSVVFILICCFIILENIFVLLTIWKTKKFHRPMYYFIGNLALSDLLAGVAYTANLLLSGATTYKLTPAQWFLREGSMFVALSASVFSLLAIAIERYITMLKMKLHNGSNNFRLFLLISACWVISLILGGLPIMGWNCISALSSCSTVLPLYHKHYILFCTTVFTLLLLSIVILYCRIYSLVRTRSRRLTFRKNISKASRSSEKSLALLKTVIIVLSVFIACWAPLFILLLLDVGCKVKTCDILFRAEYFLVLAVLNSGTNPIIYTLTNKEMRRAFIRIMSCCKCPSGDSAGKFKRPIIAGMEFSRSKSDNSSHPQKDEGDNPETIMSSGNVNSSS

[2] = target: T1, human sphingosine-1-phosphate receptor 1 (S1P1); assay: β-Arrestin2 recruitment assay (PathHunter), S1P1 CHO-K1 cells; format: cell-based; details: for hS1P1 B-arrestin2 pEC50: β-arrestin2 recruitment, S1P1 CHO-K1 cells; for Emax: CHO-K1, read-out: hS1P1 B-arrestin2 SPAN
Summary of the method: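 Enzyme-fragment complementation read-out: agonist-driven β-arrestin2 binding to ProLink-tagged human S1P1 in stable CHO-K1 cells restores β-galactosidase, measured 1 h at room temperature after a 60 min 37° C. compound incubation. Potency as pEC50, efficacy relative to fingolimod (SPAN).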
Target sequence in this assay (P21453 whole entry, looked up): as above
Target sequence in this assay (P32121 whole entry partner, looked up): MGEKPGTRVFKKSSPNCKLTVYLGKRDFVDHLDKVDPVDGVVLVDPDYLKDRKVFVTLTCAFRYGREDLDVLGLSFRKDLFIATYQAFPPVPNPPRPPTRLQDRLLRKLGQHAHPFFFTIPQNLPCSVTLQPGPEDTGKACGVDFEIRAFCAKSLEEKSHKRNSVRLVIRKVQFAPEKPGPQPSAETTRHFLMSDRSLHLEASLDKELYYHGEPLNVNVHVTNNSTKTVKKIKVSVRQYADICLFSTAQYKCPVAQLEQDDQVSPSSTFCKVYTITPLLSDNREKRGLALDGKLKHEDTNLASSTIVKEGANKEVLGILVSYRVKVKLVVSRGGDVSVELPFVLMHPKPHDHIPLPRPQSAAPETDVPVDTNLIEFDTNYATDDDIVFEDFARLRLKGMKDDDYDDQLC

[3] = efficacy (SPAN) normalized to fingolimod

| Compound | hS1P1 cAMP pEC50 [1] | hS1P1 B-arrestin2 pEC50 [2] | hS1P1 cAMP SPAN [1, 3] | hS1P1 B-arrestin2 SPAN [2, 3] | Emax [1, 3] [%] | Emax [2, 3] [%] |
| --- | --- | --- | --- | --- | --- | --- |
| CC(C)n1nnc2cc(-c3cc(-c4ccccc4)n(C)c3)ccc21 [Compound 544, 5-(1-methyl-5-phenyl-1H-pyrrol-3-yl)-1-(propan-2-yl)-1H-1,2,3-benzotriazole] | <6.5 | >5 |  |  |  |  |
| CCOP(=O)(Cc1ccc(-c2noc(-c3ccc4c(c3)nnn4C(C)C)n2)cc1)OCC [Compound 583, diethyl [(4-{5-[1-(propan-2-yl)-1H-1,2,3-benzotriazol-5-yl]-1,2,4-oxadiazol-3-yl}phenyl)methyl]phosphonate] |  |  | <75 | <75 |  |  |
| CC(C)CCn1nnc2cc(-c3nc(-c4ccc(C(F)(F)F)c(F)c4)no3)ccc21 [Compound 122, 5-{3-[3-fluoro-4-(trifluoromethyl)phenyl]-1,2,4-oxadiazol-5-yl}-1-(3-methylbutyl)-1H-1,2,3-benzotriazole] | <6.5 | <5 |  |  | < 75 | < 75 |
| CC(C)n1nnc2cc(-c3nc(-c4ccccc4Br)no3)ccc21 [Compound 282, 5-[3-(2-bromophenyl)-1,2,4-oxadiazol-5-yl]-1-(propan-2-yl)-1H-1,2,3-benzotriazole] | >6.5 | >5 |  |  | > 75 | > 75 |
| O=C1CC(CO)(CO)Oc2ccc(-c3nc(-c4ccncc4)no3)cc21 [Compound 482, 2,2-bis(hydroxymethyl)-6-[3-(pyridin-4-yl)-1,2,4-oxadiazol-5-yl]-3,4-dihydro-2H-1-benzopyran-4-one] | <6.5 | <5 |  |  |  |  |
| CC(C)c1cc(-c2nc(-c3ccc4c(c3)nnn4C(C)C)no2)ccn1 [Compound 167, 3-(1-isopropyl-1H-benzo[d][1,2,3]triazol-5-yl)-5-(2-isopropylpyridin-4-yl)-1,2,4-oxadiazole] | <6.5 | <5 |  |  |  |  |
| CCCn1nnc2cc(-c3nc(-c4ccccc4)no3)ccc21 [Compound 160, 5-(3-phenyl-1,2,4-oxadiazol-5-yl)-1-propyl-1H-1,2,3-benzotriazole] | <6.5 | <5 |  |  |  |  |
| Cc1ccncc1-c1noc(-c2cnc3c(c2)nnn3C(C)C)n1 [Compound 414, 4-methyl-3-{5-[3-(propan-2-yl)-3H-[1,2,3]triazolo[4,5-b]pyridin-6-yl]-1,2,4-oxadiazol-3-yl}pyridine] | >6.5 | <5 |  |  |  |  |
| Cc1ccc2nc(-c3ccc4c(c3)nnn4CC(C)C)oc2c1 [Compound 448, 2-(1-isobutyl-1H-benzo[d][1,2,3]triazol-5-yl)-6-methylbenzo[d]oxazole] | <6.5 | <5 |  |  |  |  |
| CC(C)n1ccc2cc(-c3nsc(-c4ccccc4F)n3)ccc21 [Compound 380, 5-[5-(2-fluorophenyl)-1,2,4-thiadiazol-3-yl]-1-(propan-2-yl)-1H-indole] | <6.5 | <5 |  |  |  |  |
| CC(C)n1nnc2cc(-c3nc(-c4ccccc4)co3)ccc21 [Compound 294, 5-(4-phenyl-1,3-oxazol-2-yl)-1-(propan-2-yl)-1H-1,2,3-benzotriazole] | <6.5 | <5 |  |  | < 75 | > 75 |
| N#Cc1cc(-c2nnc(-c3ccc4c(c3)CCC(=O)N4)o2)ccc1NCCF [Compound 476, 2-[(2-fluoroethyl)amino]-5-[5-(2-oxo-1,2,3,4-tetrahydroquinolin-6-yl)-1,3,4-oxadiazol-2-yl]benzonitrile] | >6.5 | >5 |  |  |  |  |
| Cc1ccc(-c2nc(-c3ccc4c(c3)nnn4C(C)C)no2)s1 [Compound 74, 5-[5-(5-methylthiophen-2-yl)-1,2,4-oxadiazol-3-yl]-1-(propan-2-yl)-1H-1,2,3-benzotriazole] | <6.5 | <5 |  |  | < 75 | < 75 |
| C=CCNc1ccc(-c2nc(-c3ccc4[nH]c(=O)oc4c3)no2)cc1C#N [Compound 189, 2-(allylamino)-5-(3-(2-oxo-2,3-dihydrobenzo[d]oxazol-6-yl)-1,2,4-oxadiazol-5-yl)benzonitrile] | >6.5 | >5 |  |  |  |  |
| N#Cc1cc(-c2nnc(-c3ccc4[nH]c(=O)oc4c3)o2)ccc1NCC1CC1 [Compound 486, 2-[(cyclopropylmethyl)amino]-5-[5-(2-oxo-2,3-dihydro-1,3-benzoxazol-6-yl)-1,3,4-oxadiazol-2-yl]benzonitrile] | >6.5 | <5 |  |  |  |  |
| CC(C)n1nnc2cc(-c3nc(-c4ccccc4F)co3)ccc21 [Compound 21, 5-[4-(2-fluorophenyl)-1,3-oxazol-2-yl]-1-(propan-2-yl)-1H-1,2,3-benzotriazole] | <6.5 | <5 |  |  |  |  |
| COc1ncccc1-c1noc(-c2ccc3c(c2)nnn3C(C)C)n1 [Compound 619, 5-(1-isopropyl-1H-benzo[d][1,2,3]triazol-5-yl)-3-(2-methoxypyridin-3-yl)-1,2,4-oxadiazole] | >6.5 | >5 |  |  |  |  |
| CC(C)n1nnc2cc(-c3noc(-c4cnccn4)n3)ccc21 [Compound 78, 3-(1-isopropyl-1H-benzo[d][1,2,3]triazol-5-yl)-5-(pyrazin-2-yl)-1,2,4-oxadiazole] | <6.5 | <5 |  |  | < 75 | < 75 |
| COc1ccc2oc(-c3ccc4c(c3)nnn4CC(C)C)nc2c1 [Compound 451, 2-(1-isobutyl-1H-benzo[d][1,2,3]triazol-5-yl)-5-methoxybenzo[d]oxazole] | >6.5 | >5 |  |  | < 75 | < 75 |
| O=C1CCOc2ccc(-c3nc(-c4cccnc4)no3)cc21 [Compound 102, 6-[3-(pyridin-3-yl)-1,2,4-oxadiazol-5-yl]-3,4-dihydro-2H-1-benzopyran-4-one] | <6.5 | <5 |  |  | < 75 | < 75 |
| COc1cccc2oc(-c3ccc4c(c3)nnn4C(C)C)nc12 [Compound 424, 2-(1-isopropyl-1H-benzo[d][1,2,3]triazol-5-yl)-4-methoxybenzo[d]oxazole] | >6.5 | <5 |  |  | > 75 | > 75 |
| C=C(F)CNc1ccc(-c2nc(-c3ccc4c(c3)CCC(=O)N4)no2)cc1C#N [Compound 346, 2-[(2-fluoroprop-2-en-1-yl)amino]-5-[3-(2-oxo-1,2,3,4-tetrahydroquinolin-6-yl)-1,2,4-oxadiazol-5-yl]benzonitrile] | >6.5 | >5 |  |  | > 75 | > 75 |
| Brc1ccccc1-c1nc(-c2ccc3c(c2)nnn3C2CCCC2)no1 [Compound 40, 5-(2-bromophenyl)-3-(1-cyclopentyl-1H-benzo[d][1,2,3]triazol-5-yl)-1,2,4-oxadiazole] | >6.5 | >5 |  |  |  |  |
| Brc1ccccc1-c1nc(-c2ccc3[nH]nnc3c2)no1 [Compound 97, 3-(1H-benzo[d][1,2,3]triazol-5-yl)-5-(2-bromophenyl)-1,2,4-oxadiazole] | <6.5 | <5 |  |  | < 75 | < 75 |
